Results on 1 compound are retold here after ChEMBL document CHEMBL5038665, “Identification of the Benzoimidazole Compound as a Selective FLT3 Inhibitor by Cell-Based High-Throughput Screening of a Diversity Library” (J Med Chem, 2022).

Activity calls are given as the source filed them. The rule behind the calls is not given here.

For series [1], the system named is MV4-11. Put plainly: Antitumor activity against human MV4-11 cells xenografted in Balb/c mouse assessed as reduction in tumor weight at 100 mg/kg, po administered for 28 days. It is filed as functional, organism-based. Particulars: time 28.0 day. Background: Xenograft models place foreign cells or tissue in a host animal.
The nature of series [2]: Antitumor activity against mouse Ba/F3 FLT3-ITD cells implanted in Balb/c mouse assessed as increase in survival time at 60 mg/kg, po administered every 24 hrs (Rvb=14 days). It is filed as functional.
Series [3] is described as follows: Clearance in 12 hrs fasted Sprague-Dawley rat at 15 mg/kg, po measured upto 24 hrs by LC-MS analysis. It is filed as ADME, organism-based. Particulars: in vivo.
Series [4] can be described thus: Induction of apoptosis in mouse BaF3 cells assessed as survival population at 0.5 uM measured after 48 hrs by Annexin V-FITC/propidium iodide staining based flow cytometry(reference value: 96.35 %). Particulars: read-out: Activity. The format is toxicity, cell-based. A general note: In flow cytometry, cells or beads pass a laser one at a time.
Series [5] in a line: Cmax in 12 hrs fasted Sprague-Dawley rat at 15 mg/kg, po measured upto 24 hrs by LC-MS analysis. It is filed as ADME, organism-based. Further details: route oral, dose 15 mg/kg, time <=24. Particulars: in vivo.
The nature of series [6]: Toxicity in Balb/c mouse implanted with mouse Ba/F3 FLT3-ITD cells assessed as body weight loss at 30 to 100 mg/kg, po administered for 14 days. The format is organism-based, BaF3. The note with it: in vivo, 336 h, time 14 day.
Series [7] in a line: Half life in 12 hrs fasted Sprague-Dawley rat at 15 mg/kg, po measured upto 24 hrs by LC-MS analysis. The note with it: in vivo. It is filed as ADME, organism-based.
For series [8], the target named is Receptor-type tyrosine-protein kinase FLT3 (Homo sapiens) (UniProt P36888). As to the kind of experiment: Inhibition of FLT3-mediated signalling pathway in human MV4-11 cells assessed as inhibition of STAT5 phosphorylation at 50 nM by western blot analysis. It is filed as cell-based. Background: In western blotting, separated proteins are transferred to a membrane and probed.

Series [9] can be described thus: Induction of apoptosis in mouse Ba/F3 FLT3-ITD cells assessed as survival population at 0.5 uM measured after 48 hrs by Annexin V-FITC/propidium iodide staining based flow cytometry(reference value: 93.99 %). The format is functional.
Series [10] has as its target Serine/threonine-protein kinase B-raf (Homo sapiens, UniProt P15056). As to the kind of experiment: Inhibition of BRAF (unknown origin).
A short description of series [11]: Induction of apoptosis in mouse Ba/F3 FLT3-ITD cells assessed as survival population at 0.1 uM measured after 48 hrs by Annexin V-FITC/propidium iodide staining based flow cytometry(reference value: 93.99 %). The format is functional.
Series [12] deals with Receptor-type tyrosine-protein kinase FLT3 (Homo sapiens, UniProt P36888, ITD). As to the kind of experiment: Inhibition of FLT3-ITD mutant (unknown origin).
The nature of series [13]: AUC (0-t) in 12 hrs fasted Sprague-Dawley rat at 2 mg/kg, iv measured upto 24 hrs by LC-MS analysis. The format is ADME, organism-based. The arrangement: route intravenous, dose 2 mg/kg, time <=24. Particulars: in vivo.
The test system of series [14] is MV4-11. As to the kind of experiment: Antitumor activity against human MV4-11 cells xenografted in Balb/c mouse assessed as tumor growth inhibition at 100 mg/kg, po administered for 28 days. The format is functional, organism-based. The note with it: time 28.0 day.
Series [15] can be described thus: AUC (0-t) in 12 hrs fasted Sprague-Dawley rat at 15 mg/kg, po measured upto 24 hrs by LC-MS analysis. It is filed as ADME, organism-based. The arrangement: route oral, dose 15 mg/kg, time <=24. The note with it: in vivo.
Series [16] has as its system MOLM-13. As to the kind of experiment: Induction of apoptosis in human MOLM-13 cells assessed as survival population at 0.1 uM measured after 48 hrs by Annexin V-FITC/propidium iodide staining based flow cytometry(reference value: 97.35 %). The format is functional.
For a further series, the system named is HL-60. Put plainly: Antiproliferative activity against human HL-60 cells expressing wild type FLT3 assessed as reduction in cell viability measured after 72 hrs by MTS assay. Particulars: HL-60, 72 h. It is filed as functional, cell-based.
The nature of series [17]: Induction of apoptosis in mouse BaF3 cells assessed as survival population at 1 uM measured after 48 hrs by Annexin V-FITC/propidium iodide staining based flow cytometry(reference value: 96.35 %). The note with it: read-out: Activity. The format is toxicity, cell-based.
Series [18] can be described thus: Induction of apoptosis in mouse BaF3 cells assessed as survival population at 0.1 uM measured after 48 hrs by Annexin V-FITC/propidium iodide staining based flow cytometry(reference value: 96.35 %). Particulars: read-out: Activity. The format is toxicity, cell-based.
In series [19] the test system is MV4-11. As to the kind of experiment: Induction of apoptosis in human MV4-11 cells assessed as survival population at 1 uM measured after 48 hrs by Annexin V-FITC/propidium iodide staining based flow cytometry(reference value: 98.01 %). It is filed as functional.
Series [20] deals with MV4-11. As to the kind of experiment: Induction of apoptosis in human MV4-11 cells assessed as survival population at 0.5 uM measured after 48 hrs by Annexin V-FITC/propidium iodide staining based flow cytometry(reference value: 98.01 %). It is filed as functional.
Series [21] is described as follows: Antiproliferative activity against mouse Ba/F3 FLT3-ITD cells assessed as reduction in cell viability measured after 72 hrs by MTS assay. The format is functional, cell-based.
In series [22] the target is T1, Receptor-type tyrosine-protein kinase FLT3 (Mus musculus) (UniProt Q00342).
T1 sequence (whole entry): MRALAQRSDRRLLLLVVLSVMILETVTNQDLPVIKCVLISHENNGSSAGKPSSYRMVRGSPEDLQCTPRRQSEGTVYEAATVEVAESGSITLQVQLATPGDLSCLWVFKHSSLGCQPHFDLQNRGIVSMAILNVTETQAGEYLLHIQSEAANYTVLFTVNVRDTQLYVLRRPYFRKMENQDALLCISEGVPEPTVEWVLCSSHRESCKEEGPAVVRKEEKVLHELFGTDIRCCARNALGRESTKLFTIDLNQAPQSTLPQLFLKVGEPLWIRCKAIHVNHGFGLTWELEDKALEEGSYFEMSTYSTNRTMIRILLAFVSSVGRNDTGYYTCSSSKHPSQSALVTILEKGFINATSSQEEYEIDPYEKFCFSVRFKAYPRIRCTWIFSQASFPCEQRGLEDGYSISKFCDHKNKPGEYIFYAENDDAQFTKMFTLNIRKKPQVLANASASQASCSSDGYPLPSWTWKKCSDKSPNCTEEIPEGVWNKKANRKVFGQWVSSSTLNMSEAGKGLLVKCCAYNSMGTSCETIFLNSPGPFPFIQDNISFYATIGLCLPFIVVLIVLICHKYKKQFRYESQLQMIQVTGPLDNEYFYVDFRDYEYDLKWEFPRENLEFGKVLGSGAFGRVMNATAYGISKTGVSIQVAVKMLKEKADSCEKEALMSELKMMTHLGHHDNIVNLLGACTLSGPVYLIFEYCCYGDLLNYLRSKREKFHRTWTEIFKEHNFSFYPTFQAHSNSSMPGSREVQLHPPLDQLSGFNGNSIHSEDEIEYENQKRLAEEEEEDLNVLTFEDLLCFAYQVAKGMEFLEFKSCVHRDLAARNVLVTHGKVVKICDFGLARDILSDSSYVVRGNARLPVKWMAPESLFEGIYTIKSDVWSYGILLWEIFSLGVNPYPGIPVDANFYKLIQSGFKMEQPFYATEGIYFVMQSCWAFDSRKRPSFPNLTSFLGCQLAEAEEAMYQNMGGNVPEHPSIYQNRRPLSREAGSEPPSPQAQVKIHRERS
As to the kind of experiment: Inhibition of FLT3 phosphorylation in mouse Ba/F3 FLT3-ITD cells assessed as reduction in phosphorylated FLT3 level measured after 12 hrs by western blot analysis. It is filed as cell-based.

For series [23], the system named is MOLM-13. As to the kind of experiment: Induction of apoptosis in human MOLM-13 cells assessed as survival population at 1 uM measured after 48 hrs by Annexin V-FITC/propidium iodide staining based flow cytometry(reference value: 97.35 %). The format is functional.

Sequence of Serine/threonine-protein kinase B-raf (P15056 whole entry): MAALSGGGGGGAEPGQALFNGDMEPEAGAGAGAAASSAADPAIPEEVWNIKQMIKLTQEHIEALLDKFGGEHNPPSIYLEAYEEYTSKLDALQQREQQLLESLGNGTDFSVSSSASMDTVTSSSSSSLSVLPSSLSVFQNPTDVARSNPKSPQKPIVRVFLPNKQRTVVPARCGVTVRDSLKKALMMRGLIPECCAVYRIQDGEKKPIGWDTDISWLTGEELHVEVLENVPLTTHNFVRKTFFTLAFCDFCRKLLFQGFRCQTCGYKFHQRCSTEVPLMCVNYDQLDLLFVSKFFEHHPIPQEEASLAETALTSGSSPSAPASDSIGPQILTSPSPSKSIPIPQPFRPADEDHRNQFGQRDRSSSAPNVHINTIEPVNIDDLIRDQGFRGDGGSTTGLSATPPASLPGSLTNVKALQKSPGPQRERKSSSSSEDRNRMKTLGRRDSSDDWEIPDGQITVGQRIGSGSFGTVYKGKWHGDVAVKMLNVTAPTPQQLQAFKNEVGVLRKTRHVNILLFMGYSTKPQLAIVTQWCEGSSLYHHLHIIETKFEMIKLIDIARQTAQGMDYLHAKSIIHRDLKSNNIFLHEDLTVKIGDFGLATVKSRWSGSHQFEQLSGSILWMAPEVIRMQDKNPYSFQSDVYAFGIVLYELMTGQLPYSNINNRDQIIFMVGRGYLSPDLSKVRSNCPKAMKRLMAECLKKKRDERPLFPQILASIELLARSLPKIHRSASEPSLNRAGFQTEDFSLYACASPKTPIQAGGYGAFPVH
Sequence of Receptor-type tyrosine-protein kinase FLT3 (Homo sapiens) (P36888 whole entry): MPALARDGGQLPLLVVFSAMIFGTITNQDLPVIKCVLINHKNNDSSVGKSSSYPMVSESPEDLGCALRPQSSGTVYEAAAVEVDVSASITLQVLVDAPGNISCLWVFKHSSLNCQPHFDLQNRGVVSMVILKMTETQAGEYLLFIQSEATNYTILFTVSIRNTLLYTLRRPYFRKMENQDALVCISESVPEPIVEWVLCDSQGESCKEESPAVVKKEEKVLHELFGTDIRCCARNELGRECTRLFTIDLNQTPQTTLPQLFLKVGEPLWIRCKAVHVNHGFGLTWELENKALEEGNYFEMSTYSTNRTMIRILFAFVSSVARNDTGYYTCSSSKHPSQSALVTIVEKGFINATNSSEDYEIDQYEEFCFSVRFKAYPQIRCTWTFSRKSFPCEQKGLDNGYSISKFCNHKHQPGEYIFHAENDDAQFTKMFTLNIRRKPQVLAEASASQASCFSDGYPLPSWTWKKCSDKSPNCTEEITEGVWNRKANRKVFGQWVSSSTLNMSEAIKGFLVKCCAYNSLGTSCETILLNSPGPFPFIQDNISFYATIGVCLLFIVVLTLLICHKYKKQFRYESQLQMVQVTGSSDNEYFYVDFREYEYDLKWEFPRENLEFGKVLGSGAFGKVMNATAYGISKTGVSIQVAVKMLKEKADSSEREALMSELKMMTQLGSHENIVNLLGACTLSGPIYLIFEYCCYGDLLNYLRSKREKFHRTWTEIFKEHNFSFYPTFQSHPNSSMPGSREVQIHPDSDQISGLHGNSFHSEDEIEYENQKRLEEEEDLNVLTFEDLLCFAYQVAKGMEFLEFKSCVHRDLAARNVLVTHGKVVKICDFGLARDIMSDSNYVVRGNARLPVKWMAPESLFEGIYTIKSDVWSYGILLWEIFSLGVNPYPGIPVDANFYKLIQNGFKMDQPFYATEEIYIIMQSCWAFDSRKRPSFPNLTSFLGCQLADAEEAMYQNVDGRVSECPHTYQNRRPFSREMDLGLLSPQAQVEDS
Sequence of Receptor-type tyrosine-protein kinase FLT3 (P36888 whole entry, looked up, change not shown): as the sequence (P36888 whole entry) above

`COc1cc(CNc2ccc3c(c2)ncn3-c2ccccc2)ccc1OCCO`: the outcome in the series on MV4-11 [1] and in the series on MV4-11 [14] was Active. Further, the Time in series [2] was 22 days. In addition, the apparent clearance CL/F in series [3] was 84.7 mL/min/kg. Besides, the viability at 48 h, 0.5 µM in series [4] was determined as 96.7%. The compound further came in with a Cmax in [5] of 440 ng/mL. Also, the Activity entry in series [6] is listed as “Non-Toxic”; in series [9], 47.99%; in series [11] it was 78.45%; in the series on MOLM-13 [16], 83.61%; in the series on MV4-11 [19] it was 68.54%; with MV4-11 [20], 78.6%. Also, the Activity in the series on MOLM-13 [23] came out at 65.52%. The half-life in [7] is 257 min. The inhibition result in [8] is “Active”. In addition, the half-maximal inhibitory concentration (IC50) in [10] is over 1000 nM; in [12] it was 70 nM; with HL-60, over 50 µM; in [21] it was 75.4 nM. The values for the exposure AUC(0-t) at 24 h in [13] and in [15] were 800 ng·h/mL and 2890 ng·h/mL, respectively. Further, in [17], the viability at 48 h, 1 µM came out at 97.7%. Also, the viability at 48 h, 0.1 µM in series [18] was determined as 98.3%. In addition, the inhibition entry in [22] was “Dose-Dependent Effect”.

Broadly, the CL/F is clearance divided by bioavailability, as obtained after extravascular dosing. A word on the Cmax: it is the maximum level reached in the sampled fluid or tissue. In general, half-life refers to the time in which the quantity being followed falls by half. A higher half-life goes with slow decline. Usually IC50 stands for the concentration that gives 50% inhibition. In general, AUC(0-t) refers to exposure summed from dosing to a finite time, without extrapolation to infinity. High values mean high exposure, low ones low exposure.
